Assay results from US20220409548A1, “AMORPHOUS SOLID DISPERSION OF PYRAZOLE-AMIDE COMPOUND” (JAPAN TOBACCO INC., priority 2019, published 2022).

What was measured:
[1] = Precipitation test in acidic media (pH 1.2); assay type: physicochemical; details: ethanol solution 100 mg/mL into JP 1st fluid pH 1.2, 450 mL; addition of copolyvidone, methylcellulose or hypromellose (0.01 g) vs HPMCAS, polyvinyl alcohol or no polymer; FIG. 3
Method: The dissolution test was performed using a dissolution tester (trade name: NTR-VS6P, manufactured by Toyama Sangyo Co., Ltd.) that conforms to the Japanese Pharmacopoeia Dissolution Test Method 2 (Paddle Method), at paddle rotating speed 75 rpm, test media amount 450 mL. An amount equivalent to 100 mg of the compound of the formula [I] was added to the test media, and the dissolved amount of the compound of the formula [I] was measured at each sampling point with a spectrophotometer (UV-1600, manufactured by Shimadzu Corporation).
The precipitation behavior of the compound of the formula [I], dissolved in ethanol (concentration: 100 mg/mL), in the following 6 types of test medium was evaluated by the same test method as in Experimental Example 1. […]

[2] = test system: pyruvate dehydrogenase kinase (PDHK); details: described in patent document 1 (WO 2014/142290); cited from earlier work

## CC(C)(O)CCOc1cc(-c2cnn(C(C)(C)C(N)=O)c2)c2c(c1)[C@@](O)(C(F)(F)F)c1ccccc1-2 [compound of the formula [I], 2-{4-[(9R)-9-hydroxy-2-(3-hydroxy-3-methylbutyloxy)-9-(trifluoromethyl)-9H-fluoren-4-yl]-1H-pyrazol-1-yl}-2-methylpropanamide]
[1]
  precipitation behavior in pH 1.2 test media: significantly suppressed the precipitation
[2]
  pyruvate dehydrogenase kinase (PDHK) inhibitory activity: have a pyruvate dehydrogenase kinase (PDHK) inhibitory activity
